This note sets out measurements from patent publication US20060079453A1, “Hla binding peptides and their uses” (priority 2002, published 2006).

pIC50: −log10 of the molar value. No end group written: not given here. Some results are limits rather than exact numbers.

Holding throughout (assay): biochemical
Common to all, as to type: binding

The target of experiment [1] is HLA-DR DRB1*0101 (DR1) (Homo sapiens, UniProt P01903+P01911, A100R/D57E/F55L/F60I/F76Y/I96L/L162R/M171V/P40L/Q125E/R42F/V115G/Y59C). Conditions: DRB1 *0101.
The target in experiment [2] is HLA-DR DRB1*0301 (DR3) (Homo sapiens, UniProt P01903+P01911, A100K/A102G/A103R/A169T/F55Y/I96L/K41T/L162R/M171V/P40S/Q125H/Q178H/Q39Y/R42S/S66N/T106N/T262R/W38E/Y61H).
Sequence of HLA-DR DRB1*0301 (DR3) (P01903 26-254 limits assumed, other chains not shown): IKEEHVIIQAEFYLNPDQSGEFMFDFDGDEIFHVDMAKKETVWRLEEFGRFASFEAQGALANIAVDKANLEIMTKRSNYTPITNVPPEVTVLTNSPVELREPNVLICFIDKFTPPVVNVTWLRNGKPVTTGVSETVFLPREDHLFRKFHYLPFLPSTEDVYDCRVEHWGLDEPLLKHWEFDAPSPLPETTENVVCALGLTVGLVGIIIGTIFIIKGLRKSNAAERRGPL
For experiment [3], the target named is HLA-DR DRB1*0701 (DR7) (Homo sapiens, UniProt P01903+P01911, A100R/A102G/A103Q/D57E/D86V/E43K/F76Y/K127E/L162R/M171V/P40G/Q125H/Q99D/R33Q/R42Y/R54Q/S133A/S66F/T210M/V115G/Y107V/Y59L/Y89S). Conditions: DRB1 *0701.
The target of experiment [4] is HLA-DR DRB1*0802 (DR8) (Homo sapiens, UniProt P01903+P01911, A100R/A103L/A169T/F76Y/H45Y/I96F/K41T/L162R/M171V/P40S/Q125H/Q178H/Q39Y/Q99D/R218S/R42G/S66Y/V115G/W38E).
The target of experiment [5] is HLA-DR DRB1*0901 (DR9) (Homo sapiens, UniProt P01903+P01911, A100R/A103E/D57H/D86V/F55Y/F60I/F76Y/I96F/K127E/L162R/M171V/P40D/Q125H/Q99R/R33Q/R42F/S133A/S66N/T210M/V115G/W38K/Y107V/Y59G/Y89S). The note with it: DRB1 *0901.
For experiment [6], the target named is HLA-DR DRB1*1501 (DR15) (Homo sapiens, UniProt P01903+P01911). The note with it: DRBI *1501.
In experiment [7] the target is HLA-DR DRB3*0101 (DR52) (Homo sapiens, UniProt P01903+P79483).
Experiment [8] deals with HLA-DR DRB4*0101 (DR53) (Homo sapiens, UniProt P01903+P13762, G164S). The note with it: DRB4 *0101.
The target of experiment [9] is HLA-DR DRB5*0101 (DR51) (Homo sapiens, UniProt P01903+Q30154). The note with it: DRB5 *0101.
For experiment [10], the target named is HLA-DR DRB1*0401 (DR4) (Homo sapiens, UniProt P01903+P01911, A100K/A169T/F76Y/I96L/K127E/L162R/M171V/N62H/P40V/Q125Y/R42H/S133A/S149N/S66Y/V115G/V209L/W38E). The note with it: DRB1 *0401.
The target in experiment [11] is HLA-DR DRB1*1302 (DR13) (Homo sapiens, UniProt P01903+P01911, A100E/A169T/K41T/L162R/M171V/P40S/Q125H/Q178H/Q39Y/Q99D/R42S/S66N/T262R/V115G/W38E/Y61H). Conditions: DRBI *1302.
Sequence of HLA-DR DRB1*1302 (DR13) (P01903 26-254 limits assumed, other chains not shown): as above
Experiment [12] has as its target HLA-DR DRB1*1101 (DR11) (Homo sapiens, UniProt P01903+P01911, A100R/A169T/A87E/I96F/K41T/L162R/M171V/P40S/Q125H/Q178H/Q39Y/Q99D/R42S/S66Y/T262R/V115G/W38E). Conditions: DRB1 *1101.

Sequence of HLA-DR DRB1*1101 (DR11) (P01903 26-254 limits assumed, other chains not shown): as above

In the case of `CC[C@H](C)[C@H](NC(=O)[C@H](CO)NC(=O)[C@@H](NC(=O)CN)C(C)C)C(=O)N[C@@H](Cc1c[nH]c2ccccc12)C(=O)N[C@@H](CC(N)=O)C(=O)N1CCC[C@H]1C(=O)N[C@H](C(=O)N[C@@H](CC(C)C)C(=O)N[C@@H](CC(C)C)C(=O)N[C@@H](Cc1c[nH]c2ccccc12)C(=O)N[C@@H](CCC(N)=O)C(=O)N1CCC[C@H]1C(=O)N[C@H](C(=O)N1CCC[C@H]1C(=O)O)[C@@H](C)CC)[C@@H](C)CC`, the pIC50 – broadly, −log10 of the IC50, conventionally taken in molar units – in experiment [1] was 7.36; in [2], 4.25; in experiment [3] it was 5.30; in experiment [4], 4.96; in experiment [5] it was 5.40; in [6], 8.30. The negative-log IC50 (pIC50) in experiment [7] was 5.35; in experiment [8], 6.31; in [9], 6.28.
On to `CSCC[C@H](NC(=O)CNC(=O)CNC(=O)[C@H](CCCNC(=N)N)NC(=O)[C@@H](NC(=O)[C@H](CCC(N)=O)NC(=O)[C@H](C)NC(=O)[C@@H](NC(=O)[C@@H](NC(=O)[C@H](CC(C)C)NC(=O)[C@H](Cc1c[nH]cn1)NC(=O)[C@H](Cc1ccc(O)cc1)NC(=O)[C@H](CCCCN)NC(=O)[C@H](Cc1ccccc1)NC(=O)[C@@H](N)CCSC)[C@@H](C)O)C(C)C)C(C)C)C(=O)O`, for which the negative logarithm of the IC50 (pIC50) in experiment [1] is 7.80; in experiment [2], 4.54; in experiment [10], 7.74; in [3], 7.14; in [4], 7.15; in experiment [5], 6.58. Moreover, the pIC50 in experiment [11] is 5.79; in experiment [6], 5.92; in [7], 5.44; in experiment [9], 8.24.
For `CC(C)C[C@H](NC(=O)[C@H](Cc1ccccc1)NC(=O)CNC(=O)[C@H](CC(C)C)NC(=O)[C@H](CO)NC(=O)[C@H](CC(C)C)NC(=O)[C@H](CO)NC(=O)[C@H](C)NC(=O)[C@H](C)NC(=O)[C@H](CCCNC(=N)N)NC(=O)[C@H](C)NC(=O)[C@H](CC(C)C)NC(=O)[C@H](CC(C)C)NC(=O)[C@H](CC(C)C)NC(=O)[C@@H]1CCCN1)C(=O)O`, the negative-log IC50 (pIC50) in experiment [1] was 8.00; in experiment [2] it was less than 4.09; in [4], 7.43; in experiment [5] it was 7.24; in experiment [11] it was 7.92; in [7], less than 5.01. Further, the negative logarithm of the IC50 (pIC50) in experiment [8] is 7.28; in experiment [9], 6.82.
In the case of `CC(C)C[C@H](NC(=O)[C@@H](NC(=O)[C@H](CCC(=O)O)NC(=O)[C@H](C)NC(=O)[C@H](C)NC(=O)[C@H](C)NC(=O)[C@H](CCC(N)=O)NC(=O)[C@@H](NC(=O)[C@@H](NC(=O)[C@H](Cc1ccccc1)NC(=O)[C@H](C)NC(=O)[C@H](C)NC(=O)[C@@H](N)C(C)C)[C@@H](C)O)C(C)C)[C@@H](C)O)C(=O)N[C@@H](CO)C(=O)N[C@@H](CCC(=O)O)C(=O)O`, the pIC50 in experiment [1] was 7.85; in experiment [2] it was less than 4.12; in [10], 7.24; in experiment [3], 6.10; in [4], 5.85; in experiment [5], 6.90. The pIC50 in [6] was 4.74; in [7], 5.67; in [8] it was 6.33; in [9], 6.42.
On to `CC[C@H](C)[C@H](NC(=O)CNC(=O)[C@H](CCCNC(=N)N)NC(=O)[C@H](CCCNC(=N)N)NC(=O)[C@H](Cc1ccc(O)cc1)NC(=O)[C@H](C)NC(=O)[C@H](Cc1ccc(O)cc1)NC(=O)[C@@H](N)CCC(=O)O)C(=O)N[C@@H](C)C(=O)N[C@@H](CCC(=O)O)C(=O)N[C@@H](C)C(=O)N[C@H](C(=O)NCC(=O)N[C@@H](CC(C)C)C(=O)N1CCC[C@H]1C(=O)O)C(C)C`, for which the negative-log IC50 (pIC50) in experiment [1] was 8.29; in experiment [10], 6.67; in [3] it was 7.15; in [4], 6.22; in experiment [5], 7.17; in experiment [12] it was 5.59. Besides, the pIC50 is 5.28 in experiment [11]; less than 4.34 in experiment [6]; 5.06 in [7]; 5.20 in experiment [8]; 5.92 in [9].
Consider `CSCC[C@H](NC(=O)[C@@H](NC(=O)[C@H](CCCCN)NC(=O)[C@@H](NC(=O)[C@H](C)NC(=O)[C@H](CC(=O)O)NC(=O)[C@@H](N)[C@@H](C)O)C(C)C)C(C)C)C(=O)N[C@@H](CC(=O)O)C(=O)N[C@@H](CC(C)C)C(=O)N1CCC[C@H]1C(=O)N[C@H](C(=O)N[C@@H](CCC(N)=O)C(=O)N[C@@H](CCC(=O)O)C(=O)N1CCC[C@H]1C(=O)N[C@@H](C)C(=O)O)[C@@H](C)O`, for which the pIC50 in experiment [1] is less than 4.30; in experiment [10], less than 4.10; in experiment [3], less than 4.38; in experiment [4], 4.68; in [5], less than 3.97; in [12], less than 4.30. For the same compound, the pIC50 was less than 4.46 in experiment [11]; less than 4.34 in experiment [6]; less than 4.87 in experiment [7]; 6.13 in experiment [8]; less than 3.70 in [9].
On to SLSLGFLFLLFFWLD, for which the negative-log IC50 (pIC50) was 4.94 in [1]; 5.33 in experiment [10]; 4.64 in experiment [3]; less than 3.91 in experiment [4]; 4.61 in experiment [5]; 4.00 in experiment [12]. Further, the pIC50 was 6.19 in [11]; 4.94 in experiment [6]; 5.43 in experiment [7]; less than 4.96 in [8]; 4.18 in experiment [9].
NGVLQGITSWGPEPC: the pIC50 in experiment [1] was 5.96; in experiment [10], 5.07; in [3] it was 5.64; in experiment [4], 4.28; in [5], 4.30; in [12] it was 4.49. The pIC50 in experiment [11] is less than 4.76; in [6], 6.08; in [7], less than 4.84; in experiment [8], 5.24; in [9], less than 4.00.
In the case of KSRLQGGVLVNEILN, the pIC50 in [1] is 6.44; in experiment [10], less than 4.57; in experiment [3], 5.55; in [4] it was less than 4.09; in [5] it was 5.26; in experiment [12] it was less than 4.18. For the same compound, the pIC50 in experiment [11] is 6.50; in experiment [6] it was less than 4.52; in experiment [7], less than 4.83; in [8], 6.15; in experiment [9], less than 4.00.
For the compound `CC[C@H](C)[C@H](NC(=O)[C@@H]1CCCN1C(=O)[C@H](CCC(N)=O)NC(=O)[C@@H](N)Cc1c[nH]c2ccccc12)C(=O)N1CCC[C@H]1C(=O)N[C@H](C(=O)N[C@@H](Cc1c[nH]cn1)C(=O)N[C@H](C(=O)N[C@H](C(=O)N1CCC[C@H]1C(=O)N[C@@H](CC(C)C)C(=O)N[C@@H](CO)C(=O)N[C@@H](CCC(=O)O)C(=O)N[C@@H](CC(=O)O)C(=O)N[C@@H](CCC(N)=O)C(=O)O)C(C)C)[C@@H](C)O)C(C)C`, the negative-log IC50 (pIC50) is 5.19 in experiment [1]; less than 4.57 in [10]; 6.80 in experiment [3]; less than 4.09 in [4]; 4.76 in experiment [5]; less than 4.18 in [12]. The negative logarithm of the IC50 (pIC50) in experiment [11] is 5.57; in experiment [6], less than 4.34; in [7], less than 5.05; in [8], 5.91; in experiment [9], less than 4.00.
